{"source": "ChEMBL document CHEMBL3407357", "about": "“Inhibiting the deubiquitinating enzymes (DUBs)” (J Med Chem, 2015)", "key": {"[1]": {"molecular_target": "T1, Ubiquitin carboxyl-terminal hydrolase 7 (Homo sapiens, UniProt Q93009)", "T1 sequence (Q93009 whole entry)": "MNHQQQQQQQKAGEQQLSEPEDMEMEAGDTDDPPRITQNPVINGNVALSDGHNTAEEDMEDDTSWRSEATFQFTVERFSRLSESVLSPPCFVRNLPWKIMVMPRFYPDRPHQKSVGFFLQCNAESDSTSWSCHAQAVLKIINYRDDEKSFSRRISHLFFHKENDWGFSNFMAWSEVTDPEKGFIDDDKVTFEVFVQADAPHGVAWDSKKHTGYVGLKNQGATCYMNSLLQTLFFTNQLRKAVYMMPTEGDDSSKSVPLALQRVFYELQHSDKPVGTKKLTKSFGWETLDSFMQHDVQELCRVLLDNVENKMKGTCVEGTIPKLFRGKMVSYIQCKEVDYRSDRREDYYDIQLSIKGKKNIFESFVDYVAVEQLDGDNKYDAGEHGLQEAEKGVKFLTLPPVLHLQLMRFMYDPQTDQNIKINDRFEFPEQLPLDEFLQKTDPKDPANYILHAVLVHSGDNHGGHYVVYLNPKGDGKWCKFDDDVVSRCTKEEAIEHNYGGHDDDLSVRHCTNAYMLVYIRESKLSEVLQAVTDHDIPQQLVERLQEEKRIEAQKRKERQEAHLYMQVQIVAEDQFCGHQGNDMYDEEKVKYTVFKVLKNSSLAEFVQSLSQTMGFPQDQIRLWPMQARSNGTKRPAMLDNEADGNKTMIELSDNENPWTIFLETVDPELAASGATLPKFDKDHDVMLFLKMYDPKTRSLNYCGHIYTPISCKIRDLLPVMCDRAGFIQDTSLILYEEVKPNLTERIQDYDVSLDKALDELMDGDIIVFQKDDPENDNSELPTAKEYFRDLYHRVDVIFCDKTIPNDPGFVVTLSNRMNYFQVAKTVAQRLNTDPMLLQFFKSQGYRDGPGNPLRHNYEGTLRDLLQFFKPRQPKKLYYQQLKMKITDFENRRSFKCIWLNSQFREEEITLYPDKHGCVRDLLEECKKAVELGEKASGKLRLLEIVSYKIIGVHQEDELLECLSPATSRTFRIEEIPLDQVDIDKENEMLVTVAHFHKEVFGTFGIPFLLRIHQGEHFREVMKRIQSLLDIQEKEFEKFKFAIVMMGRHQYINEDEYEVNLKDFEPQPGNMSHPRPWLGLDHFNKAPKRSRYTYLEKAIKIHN", "assay": "Inhibition of USP7 (unknown origin) by Ub-CHOP reporter assay"}, "[2]": {"molecular_target": "T1, Ubiquitin carboxyl-terminal hydrolase 7", "assay": "Inhibition of USP7 (unknown origin) by Ub-AMC assay"}, "[3]": {"molecular_target": "T2, Ubiquitin carboxyl-terminal hydrolase 13 (Homo sapiens, UniProt Q92995)", "T2 sequence (Q92995 whole entry)": "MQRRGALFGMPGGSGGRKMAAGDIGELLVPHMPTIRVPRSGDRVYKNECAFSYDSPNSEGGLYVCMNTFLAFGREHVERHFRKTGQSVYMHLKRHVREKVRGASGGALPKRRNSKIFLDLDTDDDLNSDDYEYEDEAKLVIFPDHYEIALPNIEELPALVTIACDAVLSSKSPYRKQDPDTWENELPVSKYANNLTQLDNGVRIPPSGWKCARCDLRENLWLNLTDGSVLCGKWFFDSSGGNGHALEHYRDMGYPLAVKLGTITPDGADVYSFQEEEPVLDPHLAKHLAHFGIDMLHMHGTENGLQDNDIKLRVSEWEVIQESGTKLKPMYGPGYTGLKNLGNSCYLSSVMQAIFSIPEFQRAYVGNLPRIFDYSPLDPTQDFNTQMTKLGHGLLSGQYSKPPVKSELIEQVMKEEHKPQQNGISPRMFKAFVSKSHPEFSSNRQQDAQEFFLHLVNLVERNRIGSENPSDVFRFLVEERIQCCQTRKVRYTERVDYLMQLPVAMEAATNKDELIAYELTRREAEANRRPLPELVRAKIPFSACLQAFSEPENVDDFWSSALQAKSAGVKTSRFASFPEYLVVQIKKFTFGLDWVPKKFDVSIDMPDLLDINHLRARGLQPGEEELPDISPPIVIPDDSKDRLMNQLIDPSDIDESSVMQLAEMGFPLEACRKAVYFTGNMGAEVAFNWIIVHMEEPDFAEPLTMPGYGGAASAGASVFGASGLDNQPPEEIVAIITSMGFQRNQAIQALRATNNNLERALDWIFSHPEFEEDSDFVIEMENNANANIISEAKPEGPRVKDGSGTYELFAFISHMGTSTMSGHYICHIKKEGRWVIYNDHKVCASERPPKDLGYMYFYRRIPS", "assay": "Inhibition of USP13 (unknown origin) by Ub-AMC assay"}, "[4]": {"molecular_target": "Ubiquitin carboxyl-terminal hydrolase 10 (Homo sapiens, UniProt Q14694)", "sequence (Q14694 whole entry)": "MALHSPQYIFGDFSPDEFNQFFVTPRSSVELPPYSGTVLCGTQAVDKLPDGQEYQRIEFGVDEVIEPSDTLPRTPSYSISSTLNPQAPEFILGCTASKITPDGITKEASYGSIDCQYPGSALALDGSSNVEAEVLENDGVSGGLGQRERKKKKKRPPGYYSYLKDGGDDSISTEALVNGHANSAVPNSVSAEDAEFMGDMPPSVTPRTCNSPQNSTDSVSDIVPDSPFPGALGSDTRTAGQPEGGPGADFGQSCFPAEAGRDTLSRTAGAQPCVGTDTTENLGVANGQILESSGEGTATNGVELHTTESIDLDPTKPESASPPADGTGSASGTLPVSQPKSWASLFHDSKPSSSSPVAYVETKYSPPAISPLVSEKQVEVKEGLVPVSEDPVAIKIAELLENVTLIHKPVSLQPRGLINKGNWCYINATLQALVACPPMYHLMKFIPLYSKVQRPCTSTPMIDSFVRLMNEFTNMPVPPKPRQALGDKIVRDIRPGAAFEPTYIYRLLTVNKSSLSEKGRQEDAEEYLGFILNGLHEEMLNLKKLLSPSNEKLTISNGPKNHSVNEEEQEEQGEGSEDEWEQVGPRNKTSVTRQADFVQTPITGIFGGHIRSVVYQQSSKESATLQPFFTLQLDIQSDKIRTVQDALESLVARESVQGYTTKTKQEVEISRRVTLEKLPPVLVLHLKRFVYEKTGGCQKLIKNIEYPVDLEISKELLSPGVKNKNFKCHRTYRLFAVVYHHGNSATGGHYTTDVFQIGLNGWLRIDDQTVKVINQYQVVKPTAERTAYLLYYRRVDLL", "assay": "Inhibition of USP10 (unknown origin) by Ub-AMC assay"}, "[5]": {"assay": "Steady state intracellular drug concentration after 1 hr by LC-MS and UV spectroscopy by cell based assay"}, "[6]": {"molecular_target": "T3, Ubiquitin carboxyl-terminal hydrolase 1 (Homo sapiens, UniProt O94782)", "T3 sequence (O94782 whole entry)": "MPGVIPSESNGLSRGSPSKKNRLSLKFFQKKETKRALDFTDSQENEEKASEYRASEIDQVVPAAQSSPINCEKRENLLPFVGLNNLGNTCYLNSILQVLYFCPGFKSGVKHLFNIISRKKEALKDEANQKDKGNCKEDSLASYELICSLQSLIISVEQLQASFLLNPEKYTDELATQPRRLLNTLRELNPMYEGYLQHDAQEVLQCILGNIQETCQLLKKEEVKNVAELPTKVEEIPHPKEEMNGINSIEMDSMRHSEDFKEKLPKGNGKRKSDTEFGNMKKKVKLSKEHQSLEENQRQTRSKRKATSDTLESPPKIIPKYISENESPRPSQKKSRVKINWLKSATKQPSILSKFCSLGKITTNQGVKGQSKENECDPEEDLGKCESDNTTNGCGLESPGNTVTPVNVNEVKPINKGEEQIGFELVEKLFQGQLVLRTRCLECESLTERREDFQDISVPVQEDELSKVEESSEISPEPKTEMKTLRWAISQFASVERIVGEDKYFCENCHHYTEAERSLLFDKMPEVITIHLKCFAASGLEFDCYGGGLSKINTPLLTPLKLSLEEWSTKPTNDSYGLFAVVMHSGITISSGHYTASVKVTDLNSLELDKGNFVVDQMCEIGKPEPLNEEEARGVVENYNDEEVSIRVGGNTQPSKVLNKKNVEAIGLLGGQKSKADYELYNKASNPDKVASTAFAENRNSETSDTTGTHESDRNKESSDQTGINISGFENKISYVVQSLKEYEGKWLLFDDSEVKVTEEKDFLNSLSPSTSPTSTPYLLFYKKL", "assay": "Inhibition of USP1 (unknown origin) by Ub-AMC assay"}, "[7]": {"molecular_target": "T1, Ubiquitin carboxyl-terminal hydrolase 7", "assay": "Inhibition of USP7 in multiple myeloma cells (unknown origin) by immunohistochemistry", "type": "cell-based"}}, "data": [{"smiles": "CC(=O)c1cc([N+](=O)[O-])c(Sc2cccc(Cl)c2Cl)s1", "values": [{"measurement": "EC50", "setting": "[1]", "result": 8000, "unit": "nM"}]}, {"smiles": "N#Cc1nc2c(nc1C#N)-c1cc(Cl)ccc1C2=O", "values": [{"measurement": "IC50", "setting": "[2]", "result": 420, "unit": "nM"}]}, {"smiles": "Fc1ccc(CNc2ncnc3ccc(F)cc23)cc1", "values": [{"measurement": "IC50", "setting": "[3]", "result": 600, "unit": "nM"}, {"measurement": "IC50", "setting": "[4]", "result": 600, "unit": "nM"}]}, {"smiles": "Cc1cc(C(=O)CN2CCCC2)c(C)n1-c1ccc(F)cc1", "values": [{"measurement": "Drug uptake", "setting": "[5]", "result": 13, "unit": "µM"}]}, {"smiles": "O=C1c2ccccc2C(=O)c2oc(-c3ccccc3)nc21", "values": [{"measurement": "IC50", "setting": "[6]", "result": 544, "unit": "nM"}]}, {"smiles": "O=[N+]([O-])c1cc(CCO)sc1Sc1cccc(Cl)c1Cl", "values": [{"measurement": "EC50", "setting": "[7]", "result": 20100, "unit": "nM"}]}]}
